# According to patent publication US20250243196A1, “CITRON KINASE INHIBITORS” (The Cleveland Clinic Foundation, priority 2021, published 2025):
# Target: Citron kinase (Homo sapiens (Human), UniProt O14578)
# Experiment: Radiometric citron kinase assay (Eurofins Cat #16-040KP)
# Type: biochemical
# Settings: mean of at least two independent assays; read-out: Radiometric CitK IC50
# Text: In some embodiments, the step of contacting the sample with the compound comprises administering the compound to a subject (e.g., a subject) suffering from cancer. Methods of determining kinase inhibition are well known in the art. For example, kinase activity of an enzyme and the inhibitory capacity of a test compound can be determined by measuring enzyme specific phosphorylation of a substrate. Commercial assays and kits can be employed. For example, kinase inhibition can be determined using a radiometric binding assay, such as using KinaseProfiler™ technology (Eurofins Discovery). This assay method directly detects product formation without the use of modified substrates or coupling enzymes. Test compounds are incubated with kinase, substrate, required cofactors and radioisotope labeled ATP. Following incubation, unreacted radioactive ATP is removed by washing and incorporation of the radiolabeled phosphate into the kinase substrate is assayed to detect phosphoryltransferase activity, which is directly proportional to the amount of phosphorylated substrate. Inhibition of the kinase by a kinase inhibitor prevents phosphorylation of the substrate and thereby limits the incorporation of radiolabeled phosphate. Such an assay is compatible with a microwell assay format, allowing simultaneous determination of IC50 of multiple compounds.
# Compounds were screened for biochemical kinase activity (Eurofins Discovery, France) using one of two assays. […] All values in Table 1 are the mean of at least two independent assays.
# Chain of Citron kinase (O14578 whole entry): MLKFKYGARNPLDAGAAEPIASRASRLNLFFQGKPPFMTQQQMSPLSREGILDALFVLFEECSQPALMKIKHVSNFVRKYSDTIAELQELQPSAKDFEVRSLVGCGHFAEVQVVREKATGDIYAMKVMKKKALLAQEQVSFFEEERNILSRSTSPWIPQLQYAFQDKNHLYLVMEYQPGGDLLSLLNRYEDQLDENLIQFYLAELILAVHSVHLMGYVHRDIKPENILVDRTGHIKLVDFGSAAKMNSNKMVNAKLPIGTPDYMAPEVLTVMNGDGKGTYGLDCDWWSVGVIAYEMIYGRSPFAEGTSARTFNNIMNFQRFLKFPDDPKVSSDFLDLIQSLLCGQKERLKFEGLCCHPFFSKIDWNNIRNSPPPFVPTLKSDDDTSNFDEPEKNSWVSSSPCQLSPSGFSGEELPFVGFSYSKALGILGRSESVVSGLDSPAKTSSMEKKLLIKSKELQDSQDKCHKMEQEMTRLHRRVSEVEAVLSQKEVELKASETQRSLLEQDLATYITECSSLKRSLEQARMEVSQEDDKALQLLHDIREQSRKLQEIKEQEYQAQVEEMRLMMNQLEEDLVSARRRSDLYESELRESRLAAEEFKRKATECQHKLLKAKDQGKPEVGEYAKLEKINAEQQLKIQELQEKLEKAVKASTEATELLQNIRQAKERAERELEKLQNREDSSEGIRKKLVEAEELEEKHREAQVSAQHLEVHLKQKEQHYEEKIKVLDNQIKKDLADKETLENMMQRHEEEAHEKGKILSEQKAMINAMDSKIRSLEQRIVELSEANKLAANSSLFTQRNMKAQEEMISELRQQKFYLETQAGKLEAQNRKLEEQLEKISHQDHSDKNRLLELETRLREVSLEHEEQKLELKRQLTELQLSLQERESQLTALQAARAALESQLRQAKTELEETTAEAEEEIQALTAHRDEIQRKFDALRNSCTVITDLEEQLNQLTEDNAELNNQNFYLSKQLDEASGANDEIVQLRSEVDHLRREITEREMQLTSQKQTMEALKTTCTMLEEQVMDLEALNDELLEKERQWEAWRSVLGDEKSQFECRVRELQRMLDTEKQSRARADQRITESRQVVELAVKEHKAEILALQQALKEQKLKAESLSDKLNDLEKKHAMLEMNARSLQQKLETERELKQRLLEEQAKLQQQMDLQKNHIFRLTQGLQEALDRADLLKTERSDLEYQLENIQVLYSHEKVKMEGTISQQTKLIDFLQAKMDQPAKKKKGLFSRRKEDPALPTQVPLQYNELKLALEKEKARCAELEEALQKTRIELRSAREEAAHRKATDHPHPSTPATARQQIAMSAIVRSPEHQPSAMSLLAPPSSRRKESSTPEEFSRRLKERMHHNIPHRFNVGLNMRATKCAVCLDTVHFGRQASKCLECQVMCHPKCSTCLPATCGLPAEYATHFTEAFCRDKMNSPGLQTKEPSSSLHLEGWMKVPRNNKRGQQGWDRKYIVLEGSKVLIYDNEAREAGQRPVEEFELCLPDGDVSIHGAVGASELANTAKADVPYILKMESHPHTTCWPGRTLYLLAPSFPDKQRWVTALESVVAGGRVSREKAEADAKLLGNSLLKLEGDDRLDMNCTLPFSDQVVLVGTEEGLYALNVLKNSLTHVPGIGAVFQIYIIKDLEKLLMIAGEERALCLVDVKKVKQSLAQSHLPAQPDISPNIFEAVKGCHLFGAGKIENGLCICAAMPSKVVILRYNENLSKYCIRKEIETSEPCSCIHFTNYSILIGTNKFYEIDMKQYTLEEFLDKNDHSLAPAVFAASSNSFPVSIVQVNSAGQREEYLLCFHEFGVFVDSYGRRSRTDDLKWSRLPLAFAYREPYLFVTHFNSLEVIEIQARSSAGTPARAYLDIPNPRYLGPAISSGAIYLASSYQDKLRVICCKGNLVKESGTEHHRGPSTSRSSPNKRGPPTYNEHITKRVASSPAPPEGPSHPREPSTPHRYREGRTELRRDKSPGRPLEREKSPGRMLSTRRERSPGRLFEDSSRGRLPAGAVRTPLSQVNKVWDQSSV
row,Structure (SMILES),IC50 [nM]
1,"CC(C)(C)C[C@@H](N)C(=O)Nc1ccc(-c2ccnc3[nH]c(C(F)F)cc23)nc1 [Compound F-105, (2R)-2-Amino-N-[6-[2-(difluoromethyl)-1H-pyrrolo[2,3-b]pyridin-4-yl]-3-pyridyl]-4,4-dimethyl-pentanamide]",266
2,"Cc1cc(NC(=O)[C@H](N)CC(C)(C)C)ccc1-c1ccnc2[nH]c(C3CC3)cc12 [Compound F-142, (2R)-2-Amino-N-[4-(2-cyclopropyl-1H-pyrrolo[2,3-b]pyridin-4-yl)-3-methyl-phenyl]-4,4-dimethyl-pentanamide]",18
3,"Cc1nc(NC(=O)[C@H](N)CC(C)(C)C)ccc1-c1ccnc2[nH]c(C(F)F)cc12 [Compound F-152, (2R)-2-Amino-N-[5-[2-(difluoromethyl)-1H-pyrrolo[2,3-b]pyridin-4-yl]-6-methyl-2-pyridyl]-4,4-dimethyl-pentanamide]",120
4,"CC(C)(C)[C@@H](N)C(=O)Nc1nc(-c2ccnc3[nH]ccc23)cs1 [Compound F-111, (2R)-2-Amino-3,3-dimethyl-N-[4-(1H-pyrrolo[2,3-b]pyridin-4-yl)thiazol-2-yl]butanamide]",29.6
5,"C[C@@H](N)C(=O)Nc1ccc(-c2ccnc3[nH]ccc23)cc1 [Compound F-5, (2R)-2-Amino-N-[4-(1H-pyrrolo[2,3-b]pyridin-4-yl)phenyl]propenamide]",806
6,"COc1cc(NC(=O)[C@H](N)CC(C)(C)C)ccc1-c1ccnc2[nH]c(C)cc12 [Compound F-167, (2R)-2-Amino-N-[3-methoxy-4-(2-methyl-1H-pyrrolo[2,3-b]pyridin-4-yl)phenyl]-4,4-dimethyl-pentanamide]",50
7,"Cc1cc2c(-c3ccc(NC(=O)[C@H](N)CC(C)(C)C)nc3C)ccnc2[nH]1 [Compound F-151, (2R)-2-Amino-4,4-dimethyl-N-[6-methyl-5-(2-methyl-1H-pyrrolo[2,3-b]pyridin-4-yl)-2-pyridyl]pentanamide]",91
8,"CC[C@H](C)[C@H](N)C(=O)Nc1ccc(-c2ccnc3[nH]ccc23)cc1 [Compound F-10, (2S,3S)-2-Amino-3-methyl-N-[4-(1H-pyrrolo[2,3-b]pyridin-4-yl)phenyl]pentanamide]",91.9
9,"Cc1cc2c(-c3ncc(NC(=O)[C@H](N)CC(C)(C)C)cc3C)ccnc2[nH]1 [Compound F-96, (2R)-2-Amino-4,4-dimethyl-N-[5-methyl-6-(2-methyl-1H-pyrrolo[2,3-b]pyridin-4-yl)-3-pyridyl]pentanamide]",96.9
10,"CCc1cc(NC(=O)[C@H](N)C(C)(C)C)ccc1-c1ccnc2[nH]c(C)cc12 [Compound F-93, (2R)-2-Amino-N-[3-ethyl-4-(2-methyl-1H-pyrrolo[2,3-b]pyridin-4-yl)phenyl]-3,3-dimethyl-butanamide]",121
11,"Cc1cc2c(-c3csc(NC(=O)[C@H](N)C(C)C)n3)ccnc2[nH]1 [Compound F-114, (2R)-2-Amino-3-methyl-N-[4-(2-methyl-1H-pyrrolo[2,3-b]pyridin-4-yl)thiazol-2-yl]butanamide]",244
12,"Cc1cc2c(-c3csc(NC(=O)C(N)C4(C(F)(F)F)CC4)n3)ccnc2[nH]1 (stereo not shown) [Compound F-115, 2-Amino-N-[4-(2-methyl-1H-pyrrolo[2,3-b]pyridin-4-yl)thiazol-2-yl]-2-[1-(trifluoromethyl)cyclopropyl]acetamide]",129
13,"C[C@H](N)C(=O)Nc1ccc(-c2ccnc3[nH]ccc23)cc1 [Compound F-4, (2S)-2-Amino-N-[4-(1H-pyrrolo[2,3-b]pyridin-4-yl)phenyl]propenamide]",3000
14,"Cc1cnc2[nH]ccc2c1-c1ccc(NC(=O)[C@H](N)C(C)(C)C)cc1 [Compound F-107, (2R)-2-Amino-3,3-dimethyl-N-[4-(5-methyl-1H-pyrrolo[2,3-b]pyridin-4-yl)phenyl]butanamide]",371
15,"Cc1cc2c(-c3ccc(NC(=O)[C@@H](N)C(C)(C)O)cc3C)ccnc2[nH]1 [Compound F-159, (2S)-2-Amino-3-hydroxy-3-methyl-N-[3-methyl-4-(2-methyl-1H-pyrrolo[2,3-b]pyridin-4-yl)phenyl]butanamide]",852

# The remaining lines, values ahead:
row,IC50 [nM],Structure (SMILES)
1,23.1,"Cc1c(-c2ccnc3[nH]ccc23)ccc(NC(=O)[C@H](N)C(C)(C)C)c1F [Compound F-137, (2R)-2-Amino-N-[2-fluoro-3-methyl-4-(1H-pyrrolo[2,3-b]pyridin-4-yl)phenyl]-3,3-dimethyl-butanamide]"
2,113,"COc1nc(NC(=O)[C@H](N)CC(C)C)ccc1-c1ccnc2[nH]c(C(F)(F)F)cc12 [Compound F-155, (2R)-2-Amino-N-[6-methoxy-5-[2-(trifluoromethyl)-1H-pyrrolo[2,3-b]pyridin-4-yl]-2-pyridyl]-4-methyl-pentanamide]"
3,316,"CC(C)C[C@@H](N)C(=O)Nc1ccc(-c2ccnc3[nH]ccc23)cc1C(F)(F)F [Compound F-76, (2R)-2-Amino-4-methyl-N-[4-(1H-pyrrolo[2,3-b]pyridin-4-yl)-2-(trifluoromethyl)phenyl]pentanamide]"
4,22,"CC(C)(C)C[C@@H](N)C(=O)Nc1ccc(-c2ccnc3[nH]c(C(F)(F)F)cc23)cc1 [Compound F-144, (2R)-2-amino-4,4-dimethyl-N-[4-[2-(trifluoromethyl)-1H-pyrrolo[2,3-b]pyridin-4-yl]phenyl]pentanamide]"
5,10,"CC(C)(C)C[C@@H](N)C(=O)Nc1ccc(-c2ccnc3[nH]c(C4CC4)cc23)cc1 [Compound F-141, (2R)-2-Amino-N-[4-(2-cyclopropyl-1H-pyrrolo[2,3-b]pyridin-4-yl)phenyl]-4,4-dimethyl-pentanamide]"
6,245,"CC(C)C[C@@H](N)C(=O)Nc1cccc(-c2ccnc3[nH]ccc23)c1 [Compound F-87, (2R)-2-Amino-4-methyl-N-[3-(1H-pyrrolo[2,3-b]pyridin-4-yl)phenyl]pentanamide]"
7,3000,"CC(C)C[C@@H](NCC(F)(F)F)C(=O)Nc1ccc(-c2ccnc3[nH]ccc23)cc1 [Compound F-47, (2R)-4-Methyl-N-[4-(1H-pyrrolo[2,3-b]pyridin-4-yl)phenyl]-2-(2,2,2-trifluoroethylamino)pentanamide]"
8,218,"CC(O)[C@@H](N)C(=O)Nc1ccc(-c2ccnc3[nH]ccc23)cc1 (stereo partly drawn) [Compound F-30, (2R)-2-Amino-3-hydroxy-N-[4-(1H-pyrrolo[2,3-b]pyridin-4-yl)phenyl]butanamide]"
9,301,"COc1cc(-c2ccnc3[nH]ccc23)ccc1NC(=O)[C@H](N)Cc1ccccc1 [Compound F-131, (2R)-2-Amino-N-[2-methoxy-4-(1H-pyrrolo[2,3-b]pyridin-4-yl)phenyl]-3-phenyl-propanamide]"
10,29.3,"Cc1cc2c(-c3ccc(NC(=O)[C@H](N)CC(C)(C)C)cc3C(F)F)ccnc2[nH]1 [Compound F-97, (2R)-2-Amino-N-[3-(difluoromethyl)-4-(2-methyl-1H-pyrrolo[2,3-b]pyridin-4-yl)phenyl]-4,4-dimethyl-pentanamide]"
11,108,"CC(C)(C)[C@@H](N)C(=O)Nc1ccc(-c2ccnc3[nH]c(C(F)(F)F)cc23)cc1 [Compound F-56, (2R)-2-Amino-3,3-dimethyl-N-[4-[2-(trifluoromethyl)-1H-pyrrolo[2,3-b]pyridin-4-yl]phenyl]butanamide]"
12,554,"NC(CC(F)(F)F)C(=O)Nc1ccc(-c2ccnc3[nH]ccc23)cc1 (stereo not shown) [Compound F-22, 2-Amino-4,4,4-trifluoro-N-[4-(1H-pyrrolo[2,3-b]pyridin-4-yl)phenyl]butanamide]"
13,17,"Cc1c(-c2ccnc3[nH]ccc23)ccc(NC(=O)[C@H](N)CC(C)C)c1F [Compound F-72, (2R)-2-Amino-N-[2-fluoro-3-methyl-4-(1H-pyrrolo[2,3-b]pyridin-4-yl)phenyl]-4-methyl-pentanamide]"
14,57.7,"CC(C)(C)[C@@H](N)C(=O)Nc1ccc(-c2ccnc3[nH]ccc23)c(F)c1 [Compound F-66, (2R)-2-Amino-N-[3-fluoro-4-(1H-pyrrolo[2,3-b]pyridin-4-yl)phenyl]-3,3-dimethyl-butanamide]"
15,778,"CC(O)[C@H](N)C(=O)Nc1ccc(-c2ccnc3[nH]ccc23)cc1 (stereo partly drawn) [Compound F-29, (2S)-2-Amino-3-hydroxy-N-[4-(1H-pyrrolo[2,3-b]pyridin-4-yl)phenyl]butanamide]"
16,240,"Cc1cc2c(-c3ccc(NC(=O)[C@H](N)CC(C)C)nc3C)ccnc2[nH]1 [Compound F-95, (2R)-2-Amino-4-methyl-N-[6-methyl-5-(2-methyl-1H-pyrrolo[2,3-b]pyridin-4-yl)-2-pyridyl]pentanamide]"
17,237,"Cc1cc(-c2ccnc3[nH]ccc23)ccc1NC(=O)[C@H](N)Cc1ccccc1 [Compound F-132, (2R)-2-Amino-N-[2-methyl-4-(1H-pyrrolo[2,3-b]pyridin-4-yl)phenyl]-3-phenyl-propanamide]"
18,1260,"COCCN[C@H](CC(C)C)C(=O)Nc1ccc(-c2ccnc3[nH]ccc23)cc1 [Compound F-46, (2R)-2-(2-Methoxyethylamino)-4-methyl-N-[4-(1H-pyrrolo[2,3-b]pyridin-4-yl)phenyl]pentanamide]"
19,4,"CC(C)(C)C[C@@H](N)C(=O)Nc1ccc(-c2ccnc3[nH]c(C(F)F)cc23)cc1 [Compound F-143, (2R)-2-Amino-N-[4-[2-(difluoromethyl)-1H-pyrrolo[2,3-b]pyridin-4-yl]phenyl]-4,4-dimethyl-pentanamide]"
